These results are taken from paper PMC11659888, “Structural Evidence for DUF512 as a Radical S-Adenosylmethionine Cobalamin-Binding Domain” (ACS Bio & Med Chem Au, 2024).

The structures appear in SMILES notation.

In assay [1] the target is T1, pfDUF512 (Pyrococcus furiosus, UniProt Q8U2I5).
T1 construct: gene PF0849; full length, 358 residues (1-357 modelled); E. coli, SUMO tag cut with Ulp1, one extra N-terminal His left; monomer; [4Fe-4S]
T1 sequence (Q8U2I5 1-357): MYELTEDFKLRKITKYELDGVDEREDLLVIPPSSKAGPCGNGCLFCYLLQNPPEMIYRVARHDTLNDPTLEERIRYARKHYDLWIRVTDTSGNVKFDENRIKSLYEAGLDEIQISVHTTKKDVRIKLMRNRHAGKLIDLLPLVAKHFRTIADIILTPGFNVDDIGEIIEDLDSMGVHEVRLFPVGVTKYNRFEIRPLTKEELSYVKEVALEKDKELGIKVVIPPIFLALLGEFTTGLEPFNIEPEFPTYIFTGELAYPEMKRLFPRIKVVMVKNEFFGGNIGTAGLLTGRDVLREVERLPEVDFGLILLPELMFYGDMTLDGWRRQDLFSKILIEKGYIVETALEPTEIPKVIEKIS
As to the kind of experiment: X-ray crystal structure. The format is binding. The conditions noted are these: 5 mM SAH in crystallisation, anoxic, with [4Fe-4S], cobalamin and 5'-dA; poor density for ribosyl and methionyl moieties.

The next assay deals with T2, csDUF512 (Clostridium sporogenes, UniProt Z9WP26CAS3).
T2 construct: full length, 444 residues (1-443 modelled); E. coli, SUMO tag cut with Ulp1; monomer; [4Fe-4S]; codon-optimized gene
T2 sequence (Z9WP26CAS3 1-443): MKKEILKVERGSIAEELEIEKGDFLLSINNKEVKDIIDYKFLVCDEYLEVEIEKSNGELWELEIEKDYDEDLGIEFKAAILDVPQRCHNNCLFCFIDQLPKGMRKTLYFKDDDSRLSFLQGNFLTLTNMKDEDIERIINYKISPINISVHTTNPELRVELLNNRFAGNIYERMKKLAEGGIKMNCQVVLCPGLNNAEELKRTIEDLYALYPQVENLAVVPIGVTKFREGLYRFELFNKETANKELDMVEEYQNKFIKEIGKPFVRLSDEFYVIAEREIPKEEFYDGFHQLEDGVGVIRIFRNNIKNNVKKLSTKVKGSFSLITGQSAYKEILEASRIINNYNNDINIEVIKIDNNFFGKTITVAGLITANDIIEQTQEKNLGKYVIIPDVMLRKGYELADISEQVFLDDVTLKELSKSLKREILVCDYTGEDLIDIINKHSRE
As to the kind of experiment: methylation of bound cobalamin, MeCbl, SAH and […]'-dA quantified. The format is biochemical. The conditions noted are these: titanium(III) citrate, 5 min.

The target in assay [2] is T1, pfDUF512. As to the kind of experiment: methylation of bound cobalamin, MeCbl and […]'-dA detected. The following applies: titanium(III) citrate, 5 min. The assay is classed as biochemical.
The target of another assay is T3, acDUF512 (Acinetobacter sp. CAG:196_36_41, UniProt Z9P1A2K5F3).
T3 construct: full-length gene, E. coli, SUMO tag cut with Ulp1; monomer; FeS cluster
T3 sequence (Z9P1A2K5F3 1-422): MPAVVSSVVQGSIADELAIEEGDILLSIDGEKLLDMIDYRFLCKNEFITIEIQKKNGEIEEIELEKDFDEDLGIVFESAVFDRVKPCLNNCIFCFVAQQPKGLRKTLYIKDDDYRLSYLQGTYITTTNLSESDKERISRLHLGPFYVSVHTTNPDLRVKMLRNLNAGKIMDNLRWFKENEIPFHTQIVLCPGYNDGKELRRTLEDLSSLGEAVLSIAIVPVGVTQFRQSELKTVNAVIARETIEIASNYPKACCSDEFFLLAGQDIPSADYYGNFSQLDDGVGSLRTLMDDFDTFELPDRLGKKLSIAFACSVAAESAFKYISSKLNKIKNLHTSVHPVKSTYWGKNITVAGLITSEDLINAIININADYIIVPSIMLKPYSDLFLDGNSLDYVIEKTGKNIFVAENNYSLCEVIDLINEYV
As to the kind of experiment: methylation of bound cobalamin, MeCbl, SAH and […]'-dA quantified. The conditions noted are these: titanium(III) citrate, 5 min. The assay is classed as biochemical.

Regarding `Nc1ncnc2c1ncn2[C@@H]1O[C@H](CSCC[C@H](N)C(=O)O)[C@@H](O)[C@H]1O` [SAH, S-adenosylhomocysteine], on pfDUF512 [1], the X-ray crystal structure result was “pfDUF512 was crystallized under anoxic conditions in the presence of SAH”.

Take `C[S+](CC[C@H](N)C(=O)O)C[C@H]1O[C@@H](n2cnc3c(N)ncnc32)[C@H](O)[C@@H]1O` (stereo partly shown) [SAM, S-adenosylmethionine]: the “methylation of bound cobalamin, MeCbl, SAH and 5'-dA quantified” value was “Upon incubating the four DUF512 proteins with SAM and titanium(III) citrate” on csDUF512; “Upon incubating the four DUF512 proteins with SAM and titanium(III) citrate” at acDUF512. On pfDUF512 [2], the “methylation of bound cobalamin, MeCbl and 5'-dA detected” value is “Upon incubating the four DUF512 proteins with SAM and titanium(III) citrate”.
